Test results published in US11986532B2 (Arvinas Operations, Inc., priority 2021, dated 2024).
Read-outs that look alike come from different tables or passages of the source.

Molecular target: T1, BCL6 (Homo sapiens, UniProt P41182)
T1 construct: endogenous in cells; host or cells: T47D breast cancer epithelial cells
Experiment: Immunofluorescence protocol for high content imaging of BCL6 (degradation) in T47D cells, 3 days compound treatment
Format: cell-based
Details: for DC50: read-out: Mean DC50 (nM)* category; for Dmax: read-out: Mean Dmax (%)** category
How it was run: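 Cells are seeded to reach ~70-90% confluence at endpoint, then dosed next day with compound at a final top concentration of 0.1 or 1 μM (11 points, 3-fold). After 3 days, BCL6 is detected by immunofluorescence and quantified by high-content imaging.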

[1] = T47D cells, 3 days compound treatment

SMILES | DC50 [1] [nM] | Dmax [1] [%] | Dmax (T47D) [%] | DC50 [nM]
CNC(=O)COc1cc2cc(Nc3cc(N4CCC(CN5CCC6(CC5)CN(c5ccc7c(c5)C(=O)N(C5CCC(=O)NC5=O)C7=O)C6)CC4)ncc3Cl)ccc2n(C(C)C)c1=O (centres unmarked) [Compound 215, 2-{[6-({5-chloro-2-[4-({2-[2-(2,6-dioxopiperidin-3-yl)-1,3-dioxoisoindol-5-yl]-2,7-diazaspiro[3.5]nonan-7-yl}methyl)piperidin-1-yl]pyridin-4-yl}amino)-1-isopropyl-2-oxoquinolin-3-yl]oxy}-N-methylacetamide] | – | – | 50 to 70 | 10 to 50
CNC(=O)COc1cc2cc(Nc3nc(N4CCC(CN5CCC6(CC5)CC5(CN(c7ccc8c(c7F)CN(C7CCC(=O)NC7=O)C8=O)C5)C6)CC4)ncc3Cl)ccc2n(C(C)C)c1=O (centres unmarked) [Compound 427] | – | – | ≥ 70 | < 10
CNC(=O)COc1cc2cc(Nc3nc(N4CCC(O[C@H]5C[C@H](N6CCN(c7ccc8c(c7)CN(C7CCC(=O)NC7=O)C8=O)C(C)(C)C6)C5)CC4)ncc3Cl)ccc2n(C(C)C)c1=O (some centres unmarked) [Compound 170, 2-({6-[(5-chloro-2-{4-[(1r,3r)-3-{4-[2-(2,6-dioxopiperidin-3-yl)-1-oxo-2,3-dihydro-1H-isoindol-5-yl]-3,3-dimethylpiperazin-1-yl}cyclobutoxy]piperidin-1-yl}pyrimidin-4-yl)amino]-2-oxo-1-(propan-2-yl)-1,2-dihydroquinolin-3-yl}oxy)-N-methylacetamide] | < 10 | ≥ 70 | – | –
CNC(=O)COc1cc2cc(Nc3nc(N4CCC(O[C@H]5C[C@H](N6CC7(CCN(c8ccc9c(c8)CN(C8CCC(=O)NC8=O)C9=O)CC7)C6)C5)CC4)ncc3Cl)ccc2n(C(C)C)c1=O (some centres unmarked) [Compound 369, 2-({6-[(5-chloro-2-{4-[(1r,3r)-3-{7-[2-(2,6-dioxopiperidin-3-yl)-1-oxo-2,3-dihydro-1H-isoindol-5-yl]-2,7-diazaspiro[3.5]nonan-2-yl}cyclobutoxy]piperidin-1-yl}pyrimidin-4-yl)amino]-2-oxo-1-(propan-2-yl)-1,2-dihydroquinolin-3-yl}oxy)-N-methylacetamide] | – | – | ≥ 70 | < 10
CNC(=O)COc1cc2cc(Nc3nc(N4CCC(O[C@H]5C[C@H](N6CC[C@H](c7ccc8c(c7F)CN(C7CCC(=O)NC7=O)C8=O)[C@H](O)C6)C5)CC4)ncc3Cl)ccc2n(C(C)C)c1=O (stereo partly drawn) [Compound 282, 2-({6-[(5-chloro-2-{4-[(1r,3r)-3-[(3S,4R)-4-[2-(2,6-dioxopiperidin-3-yl)-4-fluoro-1-oxo-2,3-dihydro-1H-isoindol-5-yl]-3-hydroxypiperidin-1-yl]cyclobutoxy]piperidin-1-yl}pyrimidin-4-yl)amino]-2-oxo-1-(propan-2-yl)-1,2-dihydroquinolin-3-yl}oxy)-N-methylacetamide] | – | – | 50 to 70 | < 10
CNC(=O)COc1cc2cc(Nc3nc(N4CCC(O[C@H]5C[C@H](N6CCC7(CCN(c8ccc9c(c8)C(=O)N(C8CCC(=O)NC8=O)C9=O)C7)C6)C5)CC4)ncc3Cl)ccc2n(C(C)C)c1=O (some centres unmarked) [Compound 339, 2-({6-[(5-chloro-2-{4-[(1r,3r)-3-{7-[2-(2,6-dioxopiperidin-3-yl)-1,3-dioxo-2,3-dihydro-1H-isoindol-5-yl]-2,7-diazaspiro[4.4]nonan-2-yl}cyclobutoxy]piperidin-1-yl}pyrimidin-4-yl)amino]-2-oxo-1-(propan-2-yl)-1,2-dihydroquinolin-3-yl}oxy)-N-methylacetamide] | – | – | 50 to 70 | < 10
CNC(=O)COc1cc2cc(Nc3nc(N4CCC(OC5CN(C6CCN(c7ccc8c(c7F)CN(C7CCC(=O)NC7=O)C8=O)CC6)C5)CC4)ncc3Cl)ccc2n(C(C)C)c1=O (centres unmarked) [Compound 260, 2-({6-[(5-chloro-2-{4-[(1-{1-[2-(2,6-dioxopiperidin-3-yl)-4-fluoro-1-oxo-2,3-dihydro-1H-isoindol-5-yl]piperidin-4-yl}azetidin-3-yl)oxy]piperidin-1-yl}pyrimidin-4-yl)amino]-2-oxo-1-(propan-2-yl)-1,2-dihydroquinolin-3-yl}oxy)-N-methylacetamide] | – | – | 50 to 70 | < 10
CNC(=O)COc1cc2cc(Nc3nc(N4CCC(O[C@H]5C[C@H](N6CCN(c7ccc8c(c7C)C(=O)N(C7CCC(=O)NC7=O)C8=O)[C@H](C)C6)C5)CC4)ncc3Cl)ccc2n(C(C)C)c1=O (stereo partly drawn) [Compound 193, 2-({6-[(5-chloro-2-{4-[(1r,3r)-3-[(3R)-4-[2-(2,6-dioxopiperidin-3-yl)-4-methyl-1,3-dioxoisoindol-5-yl]-3-methylpiperazin-1-yl]cyclobutoxy]piperidin-1-yl}pyrimidin-4-yl)amino]-1-isopropyl-2-oxoquinolin-3-yl}oxy)-N-methylacetamide] | < 10 | ≥ 70 | – | –
CNC(=O)COc1cc2cc(Nc3nc(N4CCC(CN5CCC6(CC5)CN(c5cccc7c5C(=O)N(C5CCC(=O)NC5=O)C7=O)C6(C)C)CC4)ncc3Cl)ccc2n(C(C)C)c1=O (centres unmarked) [Compound 337, 2-{[6-({5-chloro-2-[4-({2-[2-(2,6-dioxopiperidin-3-yl)-1,3-dioxo-2,3-dihydro-1H-isoindol-4-yl]-1,1-dimethyl-2,7-diazaspiro[3.5]nonan-7-yl}methyl)piperidin-1-yl]pyrimidin-4-yl}amino)-2-oxo-1-(propan-2-yl)-1,2-dihydroquinolin-3-yl]oxy}-N-methylacetamide] | – | – | 50 to 70 | < 10
CNC(=O)COc1cc2cc(Nc3nc(N4CCC(O[C@H]5C[C@H](N6[C@H](C)CN(c7ccc8c(c7)C(=O)N(C7CCC(=O)NC7=O)C8=O)C[C@H]6C)C5)CC4)ncc3Cl)ccc2n(C(C)C)c1=O (stereo partly drawn) [Compound 249, 2-({6-[(5-chloro-2-{4-[(1r,3r)-3-[(2R,6R)-4-[2-(2,6-dioxopiperidin-3-yl)-1,3-dioxo-2,3-dihydro-1H-isoindol-5-yl]-2,6-dimethylpiperazin-1-yl]cyclobutoxy]piperidin-1-yl}pyrimidin-4-yl)amino]-2-oxo-1-(propan-2-yl)-1,2-dihydroquinolin-3-yl}oxy)-N-methylacetamide] | – | – | < 50 | 10 to 50
CNC(=O)COc1cc2cc(Nc3nc(N4CCC(O[C@H]5C[C@H](N6CC7CCC(C6)N7c6ccc7c(c6)C(=O)N(C6CCC(=O)NC6=O)C7=O)C5)CC4)ncc3Cl)ccc2n(C(C)C)c1=O (some centres unmarked) [Compound 370, 2-({6-[(5-chloro-2-{4-[(1r,3r)-3-{8-[2-(2,6-dioxopiperidin-3-yl)-1,3-dioxo-2,3-dihydro-1H-isoindol-5-yl]-3,8-diazabicyclo[3.2.1]octan-3-yl}cyclobutoxy]piperidin-1-yl}pyrimidin-4-yl)amino]-2-oxo-1-(propan-2-yl)-1,2-dihydroquinolin-3-yl}oxy)-N-methylacetamide] | – | – | < 50 | 10 to 50
CNC(=O)COc1cc2c(F)c(Nc3cc(N4CCC(CN5CCC6(CN(c7ccc8c(c7F)CN(C7CCC(=O)NC7=O)C8=O)C6)C(F)(F)C5)CC4)ncc3Cl)ccc2n(C(C)C)c1=O (centres unmarked) [Compound 252, 2-{[6-({5-chloro-2-[4-({2-[2-(2,6-dioxopiperidin-3-yl)-4-fluoro-1-oxo-2,3-dihydro-1H-isoindol-5-yl]-5,5-difluoro-2,7-diazaspiro[3.5]nonan-7-yl}methyl)piperidin-1-yl]pyridin-4-yl}amino)-5-fluoro-2-oxo-1-(propan-2-yl)-1,2-dihydroquinolin-3-yl]oxy}-N-methylacetamide] | – | – | 50 to 70 | < 10

Second part, led by results:

DC50 [1] [nM] | Dmax [1] [%] | SMILES | Dmax (T47D) [%] | DC50 [nM]
< 10 | < 50 | CNC(=O)COc1cc2cc(Nc3nc(N4CCC(CN5CCC6(CN(c7ccc8c(c7)C(=O)N(C7CCC(=O)NC7=O)C8=O)C6)C(F)C5)CC4)ncc3Cl)ccc2n(C(C)C)c1=O (centres unmarked) [Compound 134, 2-{[6-({5-chloro-2-[4-({2-[2-(2,6-dioxopiperidin-3-yl)-1,3-dioxo-2,3-dihydro-1H-isoindol-5-yl]-5-fluoro-2,7-diazaspiro[3.5]nonan-7-yl}methyl)piperidin-1-yl]pyrimidin-4-yl}amino)-2-oxo-1-(propan-2-yl)-1,2-dihydroquinolin-3-yl]oxy}-N-methylacetamide] | – | –
< 10 | ≥ 70 | CNC(=O)COc1cc2cc(Nc3nc(N4CCC(CN5CC[C@]6(CCN(c7ccc8c(c7)CN([C@@H]7CCC(=O)NC7=O)C8=O)C6)C5)CC4)ncc3Cl)ccc2n(C(C)C)c1=O [Compound 2, 2-[(6-{[5-chloro-2-(4-{[(5S)-7-{2-[(3R)-2,6-dioxopiperidin-3-yl]-1-oxo-2,3-dihydro-1H-isoindol-5-yl}-2,7-diazaspiro[4.4]nonan-2-yl]methyl}piperidin-1-yl)pyrimidin-4-yl]amino}-2-oxo-1-(propan-2-yl)-1,2-dihydroquinolin-3-yl)oxy]-N-methylacetamide] | – | –
< 10 | 50 to 70 | CNC(=O)COc1cc2cc(Nc3nc(N4CCC(CN5CC6(CCN(c7ccc8c(c7F)CN(C7CCC(=O)NC7=O)C8=O)CC6)C5)CC4)ncc3Cl)ccc2n(C(C)C)c1=O (centres unmarked) [Compound 87, 2-{[6-({5-chloro-2-[4-({7-[2-(2,6-dioxopiperidin-3-yl)-4-fluoro-1-oxo-2,3-dihydro-1H-isoindol-5-yl]-2,7-diazaspiro[3.5]nonan-2-yl}methyl)piperidin-1-yl]pyrimidin-4-yl}amino)-2-oxo-1-(propan-2-yl)-1,2-dihydroquinolin-3-yl]oxy}-N-methylacetamide] | – | –
< 10 | 50 to 70 | CNC(=O)COc1cc2cc(Nc3nc(N4CCC(CN5CCC6(CN(c7cccc8c7CN(C7CCC(=O)NC7=O)C8=O)C6)C(F)(F)C5)CC4)ncc3Cl)ccc2n(C(C)C)c1=O (centres unmarked) [Compound 102, 2-{[6-({5-chloro-2-[4-({2-[2-(2,6-dioxopiperidin-3-yl)-1-oxo-2,3-dihydro-1H-isoindol-4-yl]-5,5-difluoro-2,7-diazaspiro[3.5]nonan-7-yl}methyl)piperidin-1-yl]pyrimidin-4-yl}amino)-2-oxo-1-(propan-2-yl)-1,2-dihydroquinolin-3-yl]oxy}-N-methylacetamide] | – | –
